Source: ChEMBL document CHEMBL5143597, “Design and synthesis of novel spirocyclic carboxylic acids as potent and orally bioavailable DGAT1 inhibitors and their biological evaluation” (Bioorg Med Chem Lett, 2022)

Tests used:
[1] = biological target: 2-acylglycerol O-acyltransferase 2 (Homo sapiens) (UniProt Q3SYC2); assay: Inhibition of recombinant human MGAT2 expressed in Sf9 cell membrane assessed as inhibition of triglyceride synthesis at 10 uM for 1 hr by LC-MS-based mass spectrophotometric analysis
Chain of 2-acylglycerol O-acyltransferase 2 (Homo sapiens) (Q3SYC2 whole entry, looked up): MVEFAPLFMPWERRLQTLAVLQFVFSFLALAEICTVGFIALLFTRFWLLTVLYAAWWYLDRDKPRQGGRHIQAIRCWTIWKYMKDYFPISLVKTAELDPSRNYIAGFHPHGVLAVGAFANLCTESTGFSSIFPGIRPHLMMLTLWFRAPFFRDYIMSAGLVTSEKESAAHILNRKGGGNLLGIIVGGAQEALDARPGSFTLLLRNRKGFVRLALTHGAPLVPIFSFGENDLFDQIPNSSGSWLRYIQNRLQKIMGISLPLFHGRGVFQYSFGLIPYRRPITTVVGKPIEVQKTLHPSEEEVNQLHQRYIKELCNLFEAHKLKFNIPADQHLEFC

[2] = Inhibition of human […] in HepG2 cells assessed as inhibition of triglyceride synthesis at 1 uM incubated for 1 hrs followed by 13C-addition of 13C-oleic acid pre-complexed with fatty acid free BSA for 6 hrs by LC/MS/MS analysis; details: time 7.0 hrs
[3] = Inhibition of human […] in HepG2 cells assessed as inhibition of triglyceride synthesis at 100 nM incubated for 1 hrs followed by 13C-addition of 13C-oleic acid pre-complexed with fatty acid free BSA for 6 hrs by LC/MS/MS analysis; details: time 7.0 hrs
[4] = Inhibition of human […] in HepG2 cells assessed as inhibition of triglyceride synthesis at 300 nM incubated for 1 hrs followed by 13C-addition of 13C-oleic acid pre-complexed with fatty acid free BSA for 6 hrs by LC/MS/MS analysis; details: time 7.0 hrs
CYP1A2 = biological target: T1, CYP1A2 (Homo sapiens, UniProt P05177); assay: Inhibition of recombinant human CYP1A2 at 25 uM by fluorescence plate reader analysis; type: ADME
T1 sequence (P05177 whole entry): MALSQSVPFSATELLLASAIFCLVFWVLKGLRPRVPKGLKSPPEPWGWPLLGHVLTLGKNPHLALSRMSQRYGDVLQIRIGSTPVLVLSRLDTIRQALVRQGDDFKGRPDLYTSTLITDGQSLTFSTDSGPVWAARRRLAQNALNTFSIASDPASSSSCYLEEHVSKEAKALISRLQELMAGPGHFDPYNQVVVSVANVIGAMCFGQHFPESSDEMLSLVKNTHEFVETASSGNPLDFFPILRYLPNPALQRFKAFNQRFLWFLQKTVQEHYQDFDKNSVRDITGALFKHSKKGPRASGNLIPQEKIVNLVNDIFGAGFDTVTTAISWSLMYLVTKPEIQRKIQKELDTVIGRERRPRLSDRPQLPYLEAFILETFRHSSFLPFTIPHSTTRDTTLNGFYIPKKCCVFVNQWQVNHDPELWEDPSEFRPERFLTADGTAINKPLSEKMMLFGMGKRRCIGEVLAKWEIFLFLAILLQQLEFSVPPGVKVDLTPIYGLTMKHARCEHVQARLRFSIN

CYP3A4 = CYP3A4 (Homo sapiens, UniProt P08684); assay: Inhibition of recombinant human CYP3A4 at 25 uM by fluorescence plate reader analysis; type: ADME
Chain of CYP3A4 (P08684 whole entry): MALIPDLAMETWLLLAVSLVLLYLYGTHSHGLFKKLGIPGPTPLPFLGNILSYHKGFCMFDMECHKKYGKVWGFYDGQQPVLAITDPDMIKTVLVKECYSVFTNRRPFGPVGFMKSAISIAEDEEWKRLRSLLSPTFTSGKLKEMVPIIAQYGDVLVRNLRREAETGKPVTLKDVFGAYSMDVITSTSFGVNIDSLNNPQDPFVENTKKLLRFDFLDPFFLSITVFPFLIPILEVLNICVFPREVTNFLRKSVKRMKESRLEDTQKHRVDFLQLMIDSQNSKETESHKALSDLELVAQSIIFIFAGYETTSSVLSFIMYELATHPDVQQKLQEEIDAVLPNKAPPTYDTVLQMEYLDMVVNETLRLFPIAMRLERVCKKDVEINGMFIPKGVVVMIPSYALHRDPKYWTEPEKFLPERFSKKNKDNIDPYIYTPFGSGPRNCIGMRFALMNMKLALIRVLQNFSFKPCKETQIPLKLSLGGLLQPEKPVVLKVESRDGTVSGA

CYP2D6 = CYP2D6 (Homo sapiens, UniProt P10635); assay: Inhibition of recombinant human CYP2D6 at 25 uM by fluorescence plate reader analysis; type: ADME
Chain of CYP2D6 (P10635 whole entry): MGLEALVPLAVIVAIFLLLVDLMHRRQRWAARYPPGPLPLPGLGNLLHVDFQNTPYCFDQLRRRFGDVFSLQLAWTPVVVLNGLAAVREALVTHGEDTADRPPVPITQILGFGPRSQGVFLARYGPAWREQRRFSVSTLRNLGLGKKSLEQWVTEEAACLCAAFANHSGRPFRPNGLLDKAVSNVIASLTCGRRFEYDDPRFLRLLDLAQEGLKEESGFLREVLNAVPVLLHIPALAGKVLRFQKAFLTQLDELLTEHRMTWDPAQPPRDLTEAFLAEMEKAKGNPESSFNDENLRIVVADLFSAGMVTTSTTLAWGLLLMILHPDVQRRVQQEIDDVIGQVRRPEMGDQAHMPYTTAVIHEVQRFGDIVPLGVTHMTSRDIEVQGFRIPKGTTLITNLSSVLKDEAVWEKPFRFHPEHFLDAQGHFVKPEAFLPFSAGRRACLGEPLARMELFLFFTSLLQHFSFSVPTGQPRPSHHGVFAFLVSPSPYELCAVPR

[5] = Solubility of compound in PBS at pH 2 incubated for 4 hrs under shaking condition by UV absorbance based analysis; type: physicochemical
[6] = Solubility of compound in PBS at pH 4 incubated for 4 hrs under shaking condition by UV absorbance based analysis; type: physicochemical
[7] = Solubility of compound in PBS at pH 7.4 incubated for 4 hrs under shaking condition by UV absorbance based analysis; type: physicochemical
[8] = Solubility of compound in PBS at pH 9 incubated for 4 hrs under shaking condition by UV absorbance based analysis; type: physicochemical
[9] = Metabolic stability in rat liver microsomes assessed as parent compound remaining at 1 uM and measured at 30 mins by LC-MS/MS analysis; type: ADME, Microsome; details: read-out: Stability
[10] = Metabolic stability in mouse liver microsomes assessed as parent compound remaining at 1 uM and measured at 30 mins by LC-MS/MS analysis; type: ADME, Microsome; details: read-out: Stability
[11] = Metabolic stability in human liver microsomes assessed as parent compound remaining at 1 uM and measured at 30 mins by LC-MS/MS analysis; type: ADME, Microsome; details: read-out: Stability
hERG (KCNH2) = hERG (KCNH2) (Homo sapiens, UniProt Q12809); assay: Displacement of [3H]astemizole from human ERG expressed in HEK293 cell membrane at 30 uM for 2 hrs by Radiometric displacement assay; type: toxicity; details: HEK293 cell membranes that express hERG, probe [3H]astemizole
Chain of hERG (KCNH2) (Q12809 whole entry): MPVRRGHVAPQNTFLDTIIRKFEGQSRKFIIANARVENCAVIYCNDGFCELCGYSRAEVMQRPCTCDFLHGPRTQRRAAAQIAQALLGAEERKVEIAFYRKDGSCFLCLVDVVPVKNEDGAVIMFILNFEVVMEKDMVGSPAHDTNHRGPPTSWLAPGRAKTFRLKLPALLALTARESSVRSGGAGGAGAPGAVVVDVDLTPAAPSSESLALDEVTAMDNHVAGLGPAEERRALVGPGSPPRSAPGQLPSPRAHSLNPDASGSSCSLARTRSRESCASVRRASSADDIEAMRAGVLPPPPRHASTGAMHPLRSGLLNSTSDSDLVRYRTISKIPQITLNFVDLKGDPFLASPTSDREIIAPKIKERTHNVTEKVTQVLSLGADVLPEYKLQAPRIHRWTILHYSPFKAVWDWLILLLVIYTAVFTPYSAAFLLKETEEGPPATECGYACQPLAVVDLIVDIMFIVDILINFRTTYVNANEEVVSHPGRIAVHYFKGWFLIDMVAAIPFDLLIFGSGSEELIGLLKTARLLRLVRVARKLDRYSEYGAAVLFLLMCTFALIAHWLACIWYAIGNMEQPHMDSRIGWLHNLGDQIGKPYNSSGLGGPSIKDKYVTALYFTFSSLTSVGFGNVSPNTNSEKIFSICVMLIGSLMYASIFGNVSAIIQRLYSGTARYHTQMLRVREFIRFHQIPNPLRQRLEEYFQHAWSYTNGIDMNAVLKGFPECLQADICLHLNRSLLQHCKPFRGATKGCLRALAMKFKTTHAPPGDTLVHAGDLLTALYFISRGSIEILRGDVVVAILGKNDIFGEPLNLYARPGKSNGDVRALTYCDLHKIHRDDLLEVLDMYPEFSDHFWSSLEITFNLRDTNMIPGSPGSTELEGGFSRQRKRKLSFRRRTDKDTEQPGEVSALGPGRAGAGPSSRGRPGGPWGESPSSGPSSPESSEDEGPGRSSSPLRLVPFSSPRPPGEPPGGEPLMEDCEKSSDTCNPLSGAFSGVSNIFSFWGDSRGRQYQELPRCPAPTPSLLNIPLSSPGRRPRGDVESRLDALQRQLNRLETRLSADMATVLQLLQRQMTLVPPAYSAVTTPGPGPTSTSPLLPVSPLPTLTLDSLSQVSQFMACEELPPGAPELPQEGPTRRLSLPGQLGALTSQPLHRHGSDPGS

[12] = Plasma protein binding in rat; type: ADME, cell-free; details: read-out: PPB
[13] = Plasma protein binding in mouse; type: ADME, cell-free; details: read-out: PPB (converted)
[14] = Clearance in C57BL/6 mouse at 3 mg/kg, iv or 10 mg/kg, po and measured up to 24 hrs by LC-MS/MS analysis; type: ADME, organism-based; details: in vivo
[15] = Apparent permeability across apical to basolateral side in MDCK cells at 2.5 uM for 90 mins; type: ADME, cell-based, Canis lupus familiaris; details: dog
[16] = Volume of distribution at steady state in C57BL/6 mouse at 3 mg/kg, iv or 10 mg/kg, po and measured up to 24 hrs by LC-MS/MS analysis; type: ADME, organism-based; details: in vivo, read-out: Vdss
[17] = AUC in C57BL/6 mouse at 3 mg/kg, iv or 10 mg/kg, po and measured up to 24 hrs by LC-MS/MS analysis; type: ADME, organism-based; parameters: time < 24 hrs, dose 3 mg/kg, route iv; details: in vivo
[18] = Cmax in C57BL/6 mouse at 3 mg/kg, iv or 10 mg/kg, po and measured up to 24 hrs by LC-MS/MS analysis; type: ADME, organism-based; parameters: dose 3 mg/kg, time < 24 hrs, route iv; details: in vivo
[19] = Tmax in C57BL/6 mouse at 3 mg/kg, iv or 10 mg/kg, po and measured up to 24 hrs by LC-MS/MS analysis; type: ADME, organism-based; details: in vivo
[20] = Half life in C57BL/6 mouse at 3 mg/kg, iv or 10 mg/kg, po and measured up to 24 hrs by LC-MS/MS analysis; type: ADME, organism-based; details: in vivo
[21] = Oral bioavailability in C57BL/6 mouse 10 mg/kg or 3 mg/kg, iv and measured up to 24 hrs by LC-MS/MS analysis; type: ADME, organism-based; details: in vivo
[22] = Volume of distribution at steady state in Wistar rat at 3 mg/kg, iv or 10 mg/kg, po and measured up to 24 hrs by LC-MS/MS analysis; type: ADME, organism-based; details: in vivo, read-out: Vdss
[23] = Clearance in Wistar rat at 3 mg/kg, iv or 10 mg/kg, po and measured up to 24 hrs by LC-MS/MS analysis; type: ADME, organism-based; details: in vivo
[24] = AUC in Wistar rat at 3 mg/kg, iv or 10 mg/kg, po and measured up to 24 hrs by LC-MS/MS analysis; type: ADME, organism-based; parameters: dose 3 mg/kg, time < 24 hrs, route iv; details: in vivo
[25] = Cmax in Wistar rat at 3 mg/kg, iv or 10 mg/kg, po and measured up to 24 hrs by LC-MS/MS analysis; type: ADME, organism-based; parameters: dose 3 mg/kg, time < 24 hrs, route iv; details: in vivo
[26] = Tmax in Wistar rat at 3 mg/kg, iv or 10 mg/kg, po and measured up to 24 hrs by LC-MS/MS analysis; type: ADME, organism-based; details: in vivo
[27] = Half life in Wistar rat at 3 mg/kg, iv or 10 mg/kg, po and measured up to 24 hrs by LC-MS/MS analysis; type: ADME, organism-based; details: in vivo
[28] = Oral bioavailability in Wistar rat at 10 mg/kg or 3 mg/kg, iv and measured up to 24 hrs by LC-MS/MS analysis; type: ADME, organism-based; details: in vivo
[29] = Drug distribution in C57BL/6 mouse plasma 10 mg/kg, po and measured at 1 hrs post dose by LC-MS/MS analysis; type: ADME, organism-based
[30] = Drug distribution in C57BL/6 mouse plasma 10 mg/kg, po and measured at 2 hrs post dose by LC-MS/MS analysis; type: ADME, organism-based
[31] = Drug distribution in C57BL/6 mouse plasma 10 mg/kg, po and measured at 8 hrs post dose by LC-MS/MS analysis; type: ADME, organism-based
[32] = Drug distribution in C57BL/6 mouse adipose tissue 10 mg/kg, po and measured at 1 hrs post dose by LC-MS/MS analysis; type: ADME, organism-based; details: read-out: Ct
[33] = Drug distribution in C57BL/6 mouse adipose tissue 10 mg/kg, po and measured at 2 hrs post dose by LC-MS/MS analysis; type: ADME, organism-based; details: read-out: Ct
[34] = Drug distribution in C57BL/6 mouse adipose tissue 10 mg/kg, po and measured at 8 hrs post dose by LC-MS/MS analysis; type: ADME, organism-based; details: read-out: Ct
[35] = Drug distribution in C57BL/6 mouse liver 10 mg/kg, po and measured at 1 hrs post dose by LC-MS/MS analysis; type: ADME, organism-based; details: read-out: Ct
[36] = Drug distribution in C57BL/6 mouse liver 10 mg/kg, po and measured at 2 hrs post dose by LC-MS/MS analysis; type: ADME, organism-based; details: read-out: Ct
[37] = Drug distribution in C57BL/6 mouse liver 10 mg/kg, po and measured at 8 hrs post dose by LC-MS/MS analysis; type: ADME, organism-based; details: read-out: Ct
[38] = Drug distribution in C57BL/6 mouse skeletal muscle 10 mg/kg, po and measured at 1 hrs post dose by LC-MS/MS analysis; type: ADME, organism-based, Skeletal muscle tissue; details: read-out: Ct
[39] = Drug distribution in C57BL/6 mouse skeletal muscle 10 mg/kg, po and measured at 2 hrs post dose by LC-MS/MS analysis; type: ADME, organism-based, Skeletal muscle tissue; details: read-out: Ct
[40] = Drug distribution in C57BL/6 mouse skeletal muscle 10 mg/kg, po and measured at 8 hrs post dose by LC-MS/MS analysis; type: ADME, organism-based, Skeletal muscle tissue; details: read-out: Ct
[41] = Drug distribution in C57BL/6 mouse brain 10 mg/kg, po and measured at 1 hrs post dose by LC-MS/MS analysis; type: ADME, organism-based; details: read-out: Ct

`O=C(Nc1ccc(C2CCC3(CC2)CC(C(=O)O)C3)cc1)c1nnc(Nc2ccc(F)c(F)c2)o1` (stereo not given) [listing 1 of 2 here] gave an inhibition [1] of 16%, an inhibition [2] of 96% and an inhibition [3] of 88%. For the same compound, the inhibition [4] was 94%.

`O=C([O-])CC1CCC2(CC1)CCC(c1ccc(NC(=O)c3nnc(Nc4ccc(F)c(F)c4)o3)cc1)CC2.[Na+]` (stereo not given) showed an inhibition at 25 µM (CYP1A2) of 5%, an inhibition at 25 µM (CYP3A4) of 5% and an inhibition at 25 µM (CYP2D6) of 8%. For the same compound, the solubility at 4 h [5] was 28 µM, the solubility at 4 h [6] was 263 µM and the solubility at 4 h [7] was 14 µM. The solubility at 4 h [8] was 17 µM.

Compound `O=C(O)CC1CCC2(CC1)CCC(c1ccc(NC(=O)c3nnc(Nc4ccc(F)c(F)c4)o3)cn1)CC2` (stereo not given) has an inhibition [1] of 16%, an inhibition [2] of 90% and an inhibition [3] of 55%. For the same compound, the inhibition [4] was 82%.

`O=C(Nc1ccc(C2CCC3(CC2)CC(C(=O)O)C3)cc1)c1nnc(Nc2ccc(F)c(F)c2)o1` (stereo not given) [listing 2 of 2 here] gave a remaining at 0.5 h, 1 µM [9] of 100%, a remaining at 0.5 h, 1 µM [10] of 96% and a remaining at 0.5 h, 1 µM [11] of 95%. It also gave an inhibition at 25 µM (CYP2D6) of 10%, an inhibition at 2 h, 30 µM (hERG (KCNH2)) of 16% and a fraction unbound [12] of 0.01. It also gave a fraction unbound [13] of 0.02, a clearance [14] of 34 mL/min/kg and a Papp A→B at 1.5 h, 2.5 µM [15] of 4.9 ×10⁻⁶ cm/s. For the same compound, the Vd [16] was 4.4 L/kg, the AUC at 24 h [17] was 2.8 µM·h and the Cmax [18] was 1400 nM. The Tmax [19] was 0.25 h, the half-life [20] was 3.6 h and the bioavailability [21] was 30%. For the same compound, the Vd [22] was 0.53 L/kg, the clearance [23] was 6.2 mL/min/kg and the AUC at 24 h [24] was 17 µM·h. For the same compound, the Cmax [25] was 14000 nM, the Tmax [26] was 1 h and the half-life [27] was 3.6 h. It also gave a bioavailability [28] of 100%, a concentration at 1 h [29] of 5900 nM and a concentration at 2 h [30] of 1660 nM. It also gave a concentration at 8 h [31] of 360 nM, a concentration at 1 h [32] of 470 nM and a concentration at 2 h [33] of 350 nM. The concentration at 8 h [34] was 130 nM, the concentration at 1 h [35] was 142000 nM and the concentration at 2 h [36] was 71600 nM. The concentration at 8 h [37] was 17800 nM, the concentration at 1 h [38] was 160 nM and the concentration at 2 h [39] was 60 nM. For the same compound, the concentration at 8 h [40] was 30 nM and the concentration at 1 h [41] was 20 nM.
